Consider seven molecules from PMC4330362, “The ATP-mediated formation of the YgjD–YeaZ–YjeE complex is required for the biosynthesis of tRNA t^6A in Escherichia coli” (Nucleic Acids Research, 2015).

Usually Kd stands for the constant that tells how readily two partners part at equilibrium. Broadly, the Km is the concentration of substrate that gives half-maximal velocity. As usually defined, the kcat is the maximal rate divided by the concentration of active sites. As usually defined, the stoichiometry N is a count of units in the complex or per binding partner.

The target in data set [1] is YeaZ (Salmonella typhimurium) (UniProt Q7CQE0). Particulars: cited from earlier work.
Data set [2] concerns Nc1ncnc2c1ncn2[C@@H]1O[C@H](COP(=O)(O)OP(=O)(O)OP(=O)(O)O)[C@@H](O)[C@H]1O. The data set is described as follows: purified protein. As to conditions: 50 mM HEPES pH 7.5, 20 °C, YjeE at 2 molar equivalents.
The target of data set [3] is T1, YgjD–YeaZ (Escherichia coli, UniProt P05852+P76256, P05852:V85E).
T1 construct: gene tsaD; 1:1 heterodimer of full-length YgjD (337 residues) and YeaZ (231 residues), each C-terminally 6xHis tagged, expressed in E. coli BL21(DE3); nucleotide sites in the YgjD active site and at the YgjD-YeaZ interface
The data set is described as follows: crystal structure. Particulars: crystallised in presence of ATP; no nucleotide at the interface. In kind it is binding.

The target in data set [4] is T2, YjeE (Escherichia coli, UniProt P0AF67).
T2 construct: gene tsaE; full length, C-terminal Strep II tag, expressed in E. coli BL21(DE3) from pET28a; monomer-dimer equilibrium
The data set is described as follows: ITC. In kind it is binding.

For data set [5], the target named is T3, YgjD–YeaZ (Escherichia coli, UniProt P05852+P76256).
T3 construct: gene tsaD; 1:1 heterodimer of full-length YgjD (337 residues) and YeaZ (231 residues), each C-terminally 6xHis tagged, expressed in E. coli BL21(DE3); nucleotide sites in the YgjD active site and at the YgjD-YeaZ interface
As to the kind of experiment: crystal structure […] A. In kind it is binding. Particulars: cocrystallised with ATP and MgCl2; two ADP: YgjD active site (Mg2+, Fe) and YgjD-YeaZ interface; no heat signal by ITC. On the technique in general: Isothermal titration calorimetry measures the heat released or taken up as one component is titrated into another.

The target in data set [6] is T4, YjeE (Escherichia coli, UniProt P0AF67, W109A).
T4 construct: gene tsaE; full length, C-terminal Strep II tag, expressed in E. coli BL21(DE3) from pET28a; monomer-dimer equilibrium
The data set is described as follows: ITC. Type of data set: binding.

Data set [7] has as its target T3, YgjD–YeaZ. The data set is described as follows: ITC. In kind it is binding.
The next data set addresses T5, YgjD (Escherichia coli, UniProt P05852).
T5 construct: gene tsaD; full length (337 residues), C-terminal 6xHis tag, expressed in E. coli BL21(DE3) from pET9a; homodimer in solution
The data set is described as follows: ITC. In kind it is binding.

For data set [8], the target named is T6, YjeE (Escherichia coli, UniProt P0AF67, Y82A).
T6 construct: gene tsaE; full length, C-terminal Strep II tag, expressed in E. coli BL21(DE3) from pET28a; monomer-dimer equilibrium
As to the kind of experiment: ITC. In kind it is binding.

Data set [9] deals with the molecule itself. The data set is described as follows: SEC; HiLoad 16/60 Superdex 75 pg; single proteins and equimolar mixture. A general note: In gel filtration, larger molecules generally elute earlier.

As to YgjD (from UniProt P40731), the Kd in [1] was 0.3 µM. Take “YgjD–YeaZ–2xYjeE complex (Escherichia coli K-12)”: in data set [2], the Michaelis constant (Km) was 644 µM and the kcat turned out to be 0.4 s⁻¹.

Regarding `Nc1ncnc2c1ncn2[C@@H]1O[C@H](COP(=O)(O)OP(=O)(O)OP(=O)(O)O)[C@@H](O)[C@H]1O` [ATP], on YgjD–YeaZ [3], the crystal structure result is recorded as “YgjD^V85E(ATP)–YeaZ crystal structures under accession number”. `Nc1ncnc2c1ncn2[C@@H]1O[C@H](COP(=O)(O)OP(=O)(O)O)[C@@H](O)[C@H]1O` [ADP]: the figures for the Kd on YjeE [4] and on YjeE [6] were 6.54 ± 0.053 µM and 4.83 ± 0.022 µM, respectively. Besides, on YgjD–YeaZ [5], the “crystal structure 2.3 A” value was “An ADP molecule could unequivocally fit the density”. For the molecule `Nc1ncnc2c1ncn2[C@@H]1O[C@H](COP(=O)(O)CP(=O)(O)OP(=O)(O)O)[C@@H](O)[C@H]1O` [AMPCPP], the figures for the equilibrium dissociation constant (Kd) at YgjD–YeaZ [7] and on YgjD were 0.7 ± 0.011 µM and 1.62 ± 0.088 µM, respectively. Turning to `Nc1ncnc2c1ncn2[C@@H]1O[C@H](CO[P@](=O)(O)O[P@](=O)(O)O[P@@](=O)(O)S)[C@@H](O)[C@H]1O` [ATPγS], the Kd on YjeE [4] was 20.4 ± 1.32 µM; at YjeE [8], 8.9 ± 0.013 µM.

B1: YgjD (TsaD) (enzyme, Escherichia coli K-12, UniProt P05852 1-337, looked up)
chain: MRVLGIETSCDETGIAIYDDEKGLLANQLYSQVKLHADYGGVVPELASRDHVRKTVPLIQAALKESGLTAKDIDAVAYTAGPGLVGALLVGATVGRSLAFAWDVPAIPVHHMEGHLLAPMLEDNPPEFPFVALLVSGGHTQLISVTGIGQYELLGESIDDAAGEAFDKTAKLLGLDYPGGPLLSKMAAQGTAGRFVFPRPMTDRPGLDFSFSGLKTFAANTIRDNGTDDQTRADIARAFEDAVVDTLMIKCKRALDQTGFKRLVMAGGVSANRTLRAKLAEMMKKRRGEVFYARPEFCTDNGAMIAYAGMVRFKAGATADLGVSVRPRWPLAELPAA
notes: YgjD (TsaD), Escherichia coli K-12, 337 residues; gene amplified from genomic DNA, cloned in pET9a; Alone it is a homodimer by gel filtration and SAXS; also called Ec–YgjD; source: E. coli BL21(DE3), purified (details in the Supplementary Materials)
In the case of B1, the “stoichiometry N” value in [9] is 2.
